# According to patent US20250122218A1, “MODULATORS OF CYSTIC FIBROSIS TRANSMEMBRANE CONDUCTANCE REGULATOR” (Vertex Pharmaceuticals Incorporated, priority 2022, published 2025):
# Biological target: T1, CFTR in F508del/MF-HBE cells (Homo sapiens, UniProt P13569, DEL508-508)
# T1 construct: human bronchial epithelial (HBE) cells derived from CF subjects heterozygous for F508del and a minimal function CFTR mutation; endogenous in cells; host or cells: primary human bronchial epithelial cells from CF subjects (F508del/MF-HBE)
# T1 sequence (P13569 with tags, fused parts or gaps DEL508-508): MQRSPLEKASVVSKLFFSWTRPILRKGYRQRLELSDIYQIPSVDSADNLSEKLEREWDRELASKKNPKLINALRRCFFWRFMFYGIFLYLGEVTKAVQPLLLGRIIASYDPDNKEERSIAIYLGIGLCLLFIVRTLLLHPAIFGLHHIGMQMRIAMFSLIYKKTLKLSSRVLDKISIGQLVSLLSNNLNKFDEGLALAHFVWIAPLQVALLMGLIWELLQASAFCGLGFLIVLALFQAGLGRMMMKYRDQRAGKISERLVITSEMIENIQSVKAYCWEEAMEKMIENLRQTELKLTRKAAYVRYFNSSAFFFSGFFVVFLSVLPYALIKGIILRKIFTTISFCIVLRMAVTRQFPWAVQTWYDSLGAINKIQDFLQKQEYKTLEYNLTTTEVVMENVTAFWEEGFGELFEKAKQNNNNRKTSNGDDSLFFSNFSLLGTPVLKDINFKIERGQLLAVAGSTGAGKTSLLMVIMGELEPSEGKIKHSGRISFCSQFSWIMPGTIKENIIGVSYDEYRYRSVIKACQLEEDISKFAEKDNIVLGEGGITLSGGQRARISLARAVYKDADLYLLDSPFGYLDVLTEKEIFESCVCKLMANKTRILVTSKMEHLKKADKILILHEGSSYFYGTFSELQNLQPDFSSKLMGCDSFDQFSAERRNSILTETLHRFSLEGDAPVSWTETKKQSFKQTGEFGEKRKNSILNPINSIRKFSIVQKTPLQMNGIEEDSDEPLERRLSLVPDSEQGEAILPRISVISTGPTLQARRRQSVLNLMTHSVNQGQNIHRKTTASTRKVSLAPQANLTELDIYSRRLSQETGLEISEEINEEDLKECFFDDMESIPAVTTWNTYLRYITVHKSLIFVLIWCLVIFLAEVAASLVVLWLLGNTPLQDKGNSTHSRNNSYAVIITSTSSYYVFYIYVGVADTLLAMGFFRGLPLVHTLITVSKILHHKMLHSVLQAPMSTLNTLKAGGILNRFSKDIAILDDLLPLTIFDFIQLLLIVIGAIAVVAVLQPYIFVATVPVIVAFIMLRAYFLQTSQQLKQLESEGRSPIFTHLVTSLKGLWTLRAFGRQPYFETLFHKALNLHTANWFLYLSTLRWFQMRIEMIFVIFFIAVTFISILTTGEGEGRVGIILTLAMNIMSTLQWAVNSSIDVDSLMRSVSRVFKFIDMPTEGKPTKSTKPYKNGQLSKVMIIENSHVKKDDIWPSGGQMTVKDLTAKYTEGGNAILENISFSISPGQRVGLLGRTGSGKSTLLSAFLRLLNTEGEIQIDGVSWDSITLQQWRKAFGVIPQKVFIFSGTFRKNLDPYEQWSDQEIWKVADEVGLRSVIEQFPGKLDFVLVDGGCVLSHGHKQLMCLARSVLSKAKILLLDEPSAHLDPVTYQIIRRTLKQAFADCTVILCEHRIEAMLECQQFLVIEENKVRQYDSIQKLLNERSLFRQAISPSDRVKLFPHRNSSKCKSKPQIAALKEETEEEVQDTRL
# Assay: Ussing chamber assay of CFTR-mediated short-circuit currents (identification of potentiator compounds)
# Type: cell-based
# Conditions: potentiator incubated 18-24 hours at 37° C. in combination with 10 μM corrector, in the presence of 20% human serum, CFTR-mediated ISC
# Summary of the method: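 Short-circuit current was measured in Ussing chambers at 37° C, Vhold 0 mV, 30 μM apical amiloride. CFTR current was defined as the forskolin (20 μM) response relative to the current remaining after BPO/GlyH-101/inhibitor 172 (20 μM each). Before recording, cells had 18-24 h exposure to test potentiators with 10 μM corrector compound in 20% human serum.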
row,EC50,Structure (SMILES)
1,< 500 nM,"CC(C)n1nccc1CN1CCCCC[C@](O)(C(F)(F)F)C2=NN=C(O2)c2nc(c(C(F)(F)F)cc2N)C1=O [Compound 129, (6R)-17-amino-6-hydroxy-12-[(2-isopropylpyrazol-3-yl)methyl]-6,15-bis (trifluoromethyl)-19-oxa-3,4,12,18-tetrazatricyclo [12.3.1.12,5] nonadeca-1(18),2,4,14,1 6-pentaen-13-one]"
2,< 500 nM,"CC1(C)CCCCC[C@](O)(C(F)(F)F)C2=NN=C(O2)c2nc(c(C(F)(F)F)cc2N)C1 [Compound 50, (6R)-17-amino-12,12-dimethyl-6,15-bis(trifluoromethyl)-19-oxa-3,4,18-triazatricyclo[12.3.1.12,5]nonadeca-1(18),2,4,14,16-pentaen-6-ol]"
3,< 500 nM,"CC1(C)Cc2cc(CN3CCCCC[C@](O)(C(F)(F)F)C4=NN=C(O4)c4nc(c(C(F)(F)F)cc4N)C3=O)ccc2O1 [Compound 150, (6R)-17-amino-12-[(2,2-dimethyl-3H-benzofuran-5-yl)methyl]-6-hydroxy-6,15-bis (trifluoromethyl)-19-oxa-3,4,12,18-tetrazatricyclo [12.3.1.12,5] nonadeca-1(18),2,4,14,1 6-pentaen-13-one]"
4,< 500 nM,"Nc1cc(C(F)(F)F)c2nc1-c1nnc(o1)[C@@](O)(C(F)(F)F)CCCCCN(Cc1cccc(OCC(F)(F)F)c1)C2=O [Compound 186, (6R)-17-amino-6-hydroxy-12-[[3-(2,2,2-trifluoroethoxy)phenyl]methyl]-6,15-bis (trifluoromethyl)-19-oxa-3,4,12,18-tetrazatricyclo [12.3.1.12,5] nonadeca-1(18),2,4,14,1 6-pentaen-13-one]"
5,< 500 nM,"Nc1cc(C(F)(F)F)c2nc1-c1nnc(o1)[C@@](O)(C(F)(F)F)CCCCCN(C1CCC(F)(F)CC1)C2=O [Compound 91, (6R)-17-Amino-12-(4,4-difluorocyclohexyl)-6-hydroxy-6,15-bis (trifluoromethyl)-19-oxa-3,4,12,18-tetrazatricyclo [12.3.1.12,5] nonadeca-1(18),2,4,14,1 6-pentaen-13-one]"
6,> 1000 nM,"CN1CCCCC(O)(C(F)(F)F)C2=NN=C(O2)c2nc(c(C(F)(F)F)cc2N)CC1=O (centres unmarked) [Compound 53, 17-amino-6-hydroxy-11-methyl-6,15-bis(trifluoromethyl)-19-oxa-3,4,11,18-tetrazatricyclo[12.3.1.12,5]nonadeca-1(18),2,4,14,16-pentaen-12-one]"
7,> 1000 nM,"Nc1cc(C(F)(F)F)c2nc1-c1nnc(o1)[C@@](O)(C(F)(F)F)CCCCCN(Cc1cc[nH]n1)C2=O [Compound 112, (6R)-17-Amino-6-hydroxy-12-(1H-pyrazol-3-ylmethyl)-6,15-bis (trifluoromethyl)-19-oxa-3,4,12,18-tetrazatricyclo [12.3.1.12,5] nonadeca-1(18),2,4,14,1 6-pentaen-13-one]"
8,< 500 nM,"Nc1cc(C(F)(F)F)c2nc1-c1nnc(o1)[C@@](O)(C(F)(F)F)CCCCCN(Cc1ccc(C34CC(C3)C4)cc1)C2=O [Compound 195, (6R)-17-amino-12-[[4-(1-bicyclo[1.1.1]pentanyl)phenyl]methyl]-6-hydroxy-6,15-bis(trifluoromethyl)-19-oxa-3,4,12,18-tetrazatricyclo[12.3.1.12,5]nonadeca-1(18),2,4,14,16-pentaen-13-one]"
9,> 1000 nM,"Nc1cc(C(F)(F)F)c2nc1-c1nnc(o1)C(O)(C(F)(F)F)c1cc(ccc1F)C=CCCC2=O (single isomer, unassigned) [Compound 59, 20-amino-8-fluoro-6-hydroxy-6,18-bis(trifluoromethyl)-23-oxa-3,4,21-triazatetracyclo[15.3.1.12,5.17,11]tricosa-1(21),2,4,7(22),8,10,12,17,19-nonaen-16-one]"
10,< 500 nM,"Nc1cc(C(F)(F)F)c2nc1-c1nnc(o1)[C@@](O)(C(F)(F)F)CCCCCN(c1ccccc1)C2=O [Compound 108, (6R)-17-Amino-6-hydroxy-12-phenyl-6,15-bis (trifluorom 19-oxa-ethyl)-3,4,12,18-tetrazatricyclo [12.3.1.12,5] nonadeca-1(18),2,4,14,1 6-pentaen-13-one]"
11,< 500 nM,"Nc1cc(C(F)(F)F)c2nc1-c1nnc(o1)[C@@](O)(C(F)(F)F)CCCCCN(C1CC(F)(F)C1)C2=O [Compound 84, (6R)-17-Amino-12-(3,3-difluorocyclobutyl)-6-hydroxy-6,15-bis (trifluoromethyl)-19-oxa-3,4,12,18-tetrazatricyclo [12.3.1.12,5] nonadeca-1(18),2,4,14,1 6-pentaen-13-one]"
12,< 500 nM,"CC(=O)N1CCCCCC(O)(C(F)(F)F)C2=NN=C(O2)c2nc(c(C(F)(F)F)cc2N)C1 (single isomer, unassigned) [Compound 20, 1-[17-amino-6-hydroxy-6,15-bis(trifluoromethyl)-19-oxa-3,4,12,18-tetrazatricyclo[12.3.1.12,5]nonadeca-1(18),2,4,14,16-pentaen-12-yl]ethanone]"
13,< 500 nM,"Nc1cc(C(F)(F)F)c2nc1-c1nnc(o1)[C@@](O)(C(F)(F)F)CCCCCN(Cc1ccc(F)c(F)c1)C2=O [Compound 146, (6R)-17-amino-12-[(3,4-difluorophenyl)methyl]-6-hydroxy-6,15-bis (trifluoromethyl)-19-oxa-3,4,12,18-tetrazatricyclo [12.3.1.12,5] nonadeca-1(18),2,4,14,1 6-pentaen-13-one]"
14,< 500 nM,"Nc1cc(C(F)(F)F)c2nc1-c1nnc(o1)C(O)(C(F)(F)F)CCCCCN(Cc1ccc(Br)cc1)C2=O (single isomer, unassigned) [Compound 236, 17-amino-12-[(4-bromophenyl)methyl]-6-hydroxy-6,15-bis(trifluoromethyl)-19-oxa-3,4,12,18-tetrazatricyclo [12.3.1.12,5] nonadeca-1(18),2,4,14,16-pentaen-13-one]"
15,< 500 nM,"COc1cc(F)cc(CN2CCCCC[C@](O)(C(F)(F)F)C3=NN=C(O3)c3nc(c(C(F)(F)F)cc3N)C2=O)c1 [Compound 176, (6R)-17-amino-12-[(3-fluoro-5-methoxy-phenyl)methyl]-6-hydroxy-6,5-bis (trifluoromethyl)-19-oxa-3,4,12,18-tetrazatricyclo [12.3.1.12,5] nonadeca-1(18),2,4,14,1 6-pentaen-13-one]"
16,< 500 nM,"Nc1cc(C(F)(F)F)c2nc1-c1nnc(o1)[C@@](O)(C(F)(F)F)CCCCCN(Cc1ccc(C(F)(F)F)nc1)C2=O [Compound 147, (6R)-17-amino-6-hydroxy-6,15-bis (trifluoromethyl)-12-[[6-(trifluoromethyl)-3-pyridyl]methyl]-19-oxa-3,4,12,18-tetrazatricyclo [12.3.1.12,5] nonadeca-1(18),2,4,14,1 6-pentaen-13-one]"
17,< 500 nM,"CC1(C)CC(N2CCCCC[C@](O)(C(F)(F)F)C3=NN=C(O3)c3nc(c(C(F)(F)F)cc3N)C2=O)C1 [Compound 93, (6R)-17-Amino-12-(3,3-dimethylcyclobutyl)-6-hydroxy-6,15-bis (trifluoromethyl)-19-oxa-3,4,12,18-tetrazatricyclo [12.3.1.12,5] nonadeca-1(18),2,4,14,1 6-pentaen-13-one]"
18,< 500 nM,"Nc1cc(C(F)(F)F)c2nc1-c1nnc(o1)[C@@](O)(C(F)(F)F)CCCCCN(Cc1cccc(Br)c1)C2=O [Compound 216, (6R)-17-amino-12-[(3-bromophenyl)methyl]-6-hydroxy-6,15-bis(trifluoromethyl)-19-oxa-3,4,12,18-tetrazatricyclo [12.3.1.12,5] nonadeca-1(18),2,4,14,16-pentaen-13-one]"
19,> 1000 nM,"CN1CCCCCC(O)(C(F)(F)F)C2=NN=C(O2)c2nc(c(C(F)(F)F)cc2N)C1=O (single isomer, unassigned) [Compound 73, 17-amino-6-hydroxy-12-methyl-6,15-bis(trifluoromethyl)-19-oxa-3,4,12,18-tetrazatricyclo[12.3.1.12,5]nonadeca-1(18),2,4,14,16-pentaen-13-one]"
20,< 500 nM,"Cn1cc(N2CCCCC[C@](O)(C(F)(F)F)C3=NN=C(O3)c3nc(c(C(F)(F)F)cc3N)C2=O)cn1 [Compound 109, (6R)-17-Amino-6-hydroxy-12-(1-methylpyrazol-4-yl)-6,15-bis (trifluoromethyl)-19-oxa-3,4,12,18-tetrazatricyclo [12.3.1.12,5] nonadeca-1(18),2,4,14,1 6-pentaen-13-one]"
21,< 500 nM,"COc1cc(OC(F)(F)F)ccc1CN1CCCCC[C@](O)(C(F)(F)F)C2=NN=C(O2)c2nc(c(C(F)(F)F)cc2N)C1=O [Compound 158, (6R)-17-amino-6-hydroxy-12-[[2-methoxy-4-(trifluoromethoxy)phenyl]methyl]-6,15-bis(trifluoromethyl)-19-oxa-3,4,12,18-tetrazatricyclo [12.3.1.12,5] nonadeca-1(18),2,4,14,1 6-pentaen-13-one]"
22,< 500 nM,"Nc1cc(C(F)(F)F)c2nc1-c1nnc(o1)[C@@](O)(C(F)(F)F)CCCCCN(C13CCC(CC1)CC3)C2=O [Compound 210, (6R)-17-amino-12-(1-bicyclo[2.2.2]octanyl)-6-hydroxy-6,15-bis(trifluoromethyl)-19-oxa-3,4,12,18-tetrazatricyclo [12.3.1.12,5] nonadeca-1(18),2,4,14,16-pentaen-13-one]"
23,< 500 nM,"Cc1cc(C)cc(CN2CCCCC[C@](O)(C(F)(F)F)C3=NN=C(O3)c3nc(c(C(F)(F)F)cc3N)C2=O)c1 [Compound 225, (6R)-17-amino-12-[(3,5-dimethylphenyl)methyl]-6-hydroxy-6,15-bis(trifluoromethyl)-19-oxa-3,4,12,18-tetrazatricyclo [12.3.1.12,5] nonadeca-1(18),2,4,14,16-pentaen-13-one]"
